# Source: US20260215428A1, “WEED CONTROL METHOD” (SYNGENTA CROP PROTECTION AG, priority 2023, published 2026)
# Tests used:
# Format in all cases: in vivo
# Conditions in all cases: 21 days after application
# Lolium multiflorum = assay: Further glasshouse test versus other ACCase-inhibiting herbicides, Table B2-1
# Text: (§1) Further tests were employed to test the efficacy of a compound of Formula I versus other ACCase-inhibiting herbicides. The five main targets were Lolium multiflorum, Eleusine indica, Digitaria insularis, Sorghum halepense and Echinochloa crus-galli. Collectively, the populations contained all the major target-site resistance mutations affecting ACCase herbicides. Two L. multiflorum (LM-NTSR-1 and LM-NTSR-2) and one E. crus-galli (ECG-NTSR-1) populations were characterised exclusively by non-target-site resistance (“NTSR”). The target-site resistant L. multiflorum and E. indication populations were 100% homozygous for different ACCase mutations whilst the D. insularis, S. halepense and E. crus-galli samples contained a mixture of homozygous wild and mutant individuals at different genotypic frequencies. Additional underlying NTSR cannot be ruled out in the populations characterised by target-site resistance.
# (§2) Around 50 seeds of each of the 24 weed populations were sown in 12-cm pots containing a mixture of peat and compost in a 1:1 ratio. The pots were watered, fertilised and kept in controlled glasshouse conditions set at 24° C./16 hr day, 18° C. night, 65% relative humidity, and a photon flux density of approximately 250 μmol quanta m^−2 s^−1 for Lolium multiflorum. The E. indica, D. insularis, S. halepense and E. crus-galli plants were kept in a separate glasshouse bay characterised by a 17 H photoperiod of 180 μmol m^−2 s^−1 with temperatures of 25° C. day and 19° C. night and 65% relative humidity. When the plants were at the two to four-leaf stage, they were treated with the various ACCase-inhibiting herbicides at 0, 15, 30, 60, 120 and 240 g ai ha^−1 in a spray cabinet mounted with a single mobile Teejet flat fan nozzle (11002VS) calibrated to deliver 200 L ha^−1 at 200 kPa. The L. multiflorum populations were treated by a compound of Formula Ic, clodinafop-propargyl, pinoxaden, cycloxydim and clethodim and the warm season grass weeds E. indica, D. insularis, S. halepense and E. crus-galli were sprayed with a Compound Ic and the commonly employed haloxyfop-methyl and clethodim. Three replicate pots were used per population. Plants were assessed for visual damage compared to the untreated control 21 days after application (0=0% damage; 100=100% damage).
# Echinochloa Crus-galli = assay: Further glasshouse test versus other ACCase-inhibiting herbicides, Table B2-5
# Text: as §1, §2
# Digitaria insularis = assay: Further glasshouse test versus other ACCase-inhibiting herbicides, Table B2-3
# Text: as §1, §2
# Eleusine indica = assay: Further glasshouse test versus other ACCase-inhibiting herbicides, Table B2-2
# Text: as §1, §2
# Sorghum halepense = assay: Further glasshouse test versus other ACCase-inhibiting herbicides, Table B2-4
# Text: as §1, §2
structure (smiles),measurement,setting,value
"CCc1cc(C)cc(CC)c1-c1c(OC(=O)C(C)(C)C)n2n(c1=O)CCOCC2 [Pinoxaden, pinoxaden]",visual damage,"Lolium multiflorum; biotype C2088R, 15 g/ha",0%
same,visual damage,"Lolium multiflorum; biotype C2088R, 30 g/ha",0%
same,visual damage,"Lolium multiflorum; biotype C2088R, 60 g/ha",0%
same,visual damage,"Lolium multiflorum; biotype C2088R, 120 g/ha",3%
same,visual damage,"Lolium multiflorum; biotype C2088R, 240 g/ha",30%
same,visual damage,"Lolium multiflorum; biotype D2078G, 15 g/ha",3%
same,visual damage,"Lolium multiflorum; biotype D2078G, 30 g/ha",3%
same,visual damage,"Lolium multiflorum; biotype D2078G, 60 g/ha",10%
same,visual damage,"Lolium multiflorum; biotype D2078G, 120 g/ha",45%
same,visual damage,"Lolium multiflorum; biotype D2078G, 240 g/ha",90%
same,visual damage,"Lolium multiflorum; biotype I1781L, 15 g/ha",7%
same,visual damage,"Lolium multiflorum; biotype I1781L, 30 g/ha",7%
same,visual damage,"Lolium multiflorum; biotype I1781L, 60 g/ha",27%
same,visual damage,"Lolium multiflorum; biotype I1781L, 120 g/ha",73%
same,visual damage,"Lolium multiflorum; biotype I1781L, 240 g/ha",98%
same,visual damage,"Lolium multiflorum; biotype Sensitive, 15 g/ha",100%
same,visual damage,"Lolium multiflorum; biotype Sensitive, 30 g/ha",100%
same,visual damage,"Lolium multiflorum; biotype Sensitive, 60 g/ha",100%
same,visual damage,"Lolium multiflorum; biotype Sensitive, 120 g/ha",100%
same,visual damage,"Lolium multiflorum; biotype Sensitive, 240 g/ha",100%
same,visual damage,"Lolium multiflorum; biotype W1999S, 15 g/ha",0%
same,visual damage,"Lolium multiflorum; biotype W1999S, 30 g/ha",0%
same,visual damage,"Lolium multiflorum; biotype W1999S, 60 g/ha",0%
same,visual damage,"Lolium multiflorum; biotype W1999S, 120 g/ha",7%
same,visual damage,"Lolium multiflorum; biotype W1999S, 240 g/ha",33%
same,visual damage,"Lolium multiflorum; biotype W2027C, 15 g/ha",0%
same,visual damage,"Lolium multiflorum; biotype W2027C, 30 g/ha",10%
same,visual damage,"Lolium multiflorum; biotype W2027C, 60 g/ha",62%
same,visual damage,"Lolium multiflorum; biotype W2027C, 120 g/ha",93%
same,visual damage,"Lolium multiflorum; biotype W2027C, 240 g/ha",100%
same,visual damage,"Lolium multiflorum; population LM-NTSR-1 (non-target-site resistance), 15 g/ha",30%
same,visual damage,"Lolium multiflorum; population LM-NTSR-1 (non-target-site resistance), 30 g/ha",85%
same,visual damage,"Lolium multiflorum; population LM-NTSR-1 (non-target-site resistance), 60 g/ha",97%
same,visual damage,"Lolium multiflorum; population LM-NTSR-1 (non-target-site resistance), 120 g/ha",100%
same,visual damage,"Lolium multiflorum; population LM-NTSR-1 (non-target-site resistance), 240 g/ha",100%
same,visual damage,"Lolium multiflorum; population LM-NTSR-2 (non-target-site resistance), 15 g/ha",0%
same,visual damage,"Lolium multiflorum; population LM-NTSR-2 (non-target-site resistance), 30 g/ha",0%
same,visual damage,"Lolium multiflorum; population LM-NTSR-2 (non-target-site resistance), 60 g/ha",0%
same,visual damage,"Lolium multiflorum; population LM-NTSR-2 (non-target-site resistance), 120 g/ha",65%
same,visual damage,"Lolium multiflorum; population LM-NTSR-2 (non-target-site resistance), 240 g/ha",53%
"COC(=O)C(C)Oc1ccc(Oc2ncc(C(F)(F)F)cc2Cl)cc1 (stereo not shown) [Haloxyfop-p-methyl, haloxyfop-methyl]",visual damage,"Echinochloa Crus-galli; biotype Sensitive, 15 g/ha",100%
same,visual damage,"Echinochloa Crus-galli; biotype Sensitive, 30 g/ha",100%
same,visual damage,"Echinochloa Crus-galli; biotype Sensitive, 60 g/ha",100%
same,visual damage,"Echinochloa Crus-galli; biotype Sensitive, 120 g/ha",100%
same,visual damage,"Echinochloa Crus-galli; biotype Sensitive, 240 g/ha",100%
same,visual damage,"Echinochloa Crus-galli; biotype W2027C, 15 g/ha",3%
same,visual damage,"Echinochloa Crus-galli; biotype W2027C, 30 g/ha",75%
same,visual damage,"Echinochloa Crus-galli; biotype W2027C, 60 g/ha",73%
same,visual damage,"Echinochloa Crus-galli; biotype W2027C, 120 g/ha",100%
same,visual damage,"Echinochloa Crus-galli; biotype W2027C, 240 g/ha",100%
same,visual damage,"Echinochloa Crus-galli; population ECG-NTSR-1 (non-target-site resistance), 15 g/ha",73%
same,visual damage,"Echinochloa Crus-galli; population ECG-NTSR-1 (non-target-site resistance), 30 g/ha",87%
same,visual damage,"Echinochloa Crus-galli; population ECG-NTSR-1 (non-target-site resistance), 60 g/ha",100%
same,visual damage,"Echinochloa Crus-galli; population ECG-NTSR-1 (non-target-site resistance), 120 g/ha",100%
same,visual damage,"Echinochloa Crus-galli; population ECG-NTSR-1 (non-target-site resistance), 240 g/ha",100%
same,visual damage,"Digitaria insularis; biotype Sensitive, 15 g/ha",100%
same,visual damage,"Digitaria insularis; biotype Sensitive, 30 g/ha",100%
same,visual damage,"Digitaria insularis; biotype Sensitive, 60 g/ha",100%
same,visual damage,"Digitaria insularis; biotype Sensitive, 120 g/ha",100%
same,visual damage,"Digitaria insularis; biotype Sensitive, 240 g/ha",100%
same,visual damage,"Digitaria insularis; biotype W2027C, 15 g/ha",76%
same,visual damage,"Digitaria insularis; biotype W2027C, 30 g/ha",53%
same,visual damage,"Digitaria insularis; biotype W2027C, 60 g/ha",93%
same,visual damage,"Digitaria insularis; biotype W2027C, 120 g/ha",100%
same,visual damage,"Digitaria insularis; biotype W2027C, 240 g/ha",100%
same,visual damage,"Eleusine indica; biotype D2078G, 15 g/ha",0%
same,visual damage,"Eleusine indica; biotype D2078G, 30 g/ha",0%
same,visual damage,"Eleusine indica; biotype D2078G, 60 g/ha",60%
same,visual damage,"Eleusine indica; biotype D2078G, 120 g/ha",95%
same,visual damage,"Eleusine indica; biotype D2078G, 240 g/ha",88%
same,visual damage,"Eleusine indica; biotype G2096A, 15 g/ha",3%
same,visual damage,"Eleusine indica; biotype G2096A, 30 g/ha",3%
same,visual damage,"Eleusine indica; biotype G2096A, 60 g/ha",23%
same,visual damage,"Eleusine indica; biotype G2096A, 120 g/ha",30%
same,visual damage,"Eleusine indica; biotype G2096A, 240 g/ha",53%
same,visual damage,"Eleusine indica; biotype I2041N, 15 g/ha",0%
same,visual damage,"Eleusine indica; biotype I2041N, 30 g/ha",7%
same,visual damage,"Eleusine indica; biotype I2041N, 60 g/ha",0%
same,visual damage,"Eleusine indica; biotype I2041N, 120 g/ha",10%
same,visual damage,"Eleusine indica; biotype I2041N, 240 g/ha",0%
same,visual damage,"Eleusine indica; biotype Sensitive, 15 g/ha",100%
same,visual damage,"Eleusine indica; biotype Sensitive, 30 g/ha",100%
same,visual damage,"Eleusine indica; biotype Sensitive, 60 g/ha",100%
same,visual damage,"Eleusine indica; biotype Sensitive, 120 g/ha",100%
same,visual damage,"Eleusine indica; biotype Sensitive, 240 g/ha",100%
same,visual damage,"Eleusine indica; biotype W2027C, 15 g/ha",0%
same,visual damage,"Eleusine indica; biotype W2027C, 30 g/ha",0%
same,visual damage,"Eleusine indica; biotype W2027C, 60 g/ha",17%
same,visual damage,"Eleusine indica; biotype W2027C, 120 g/ha",30%
same,visual damage,"Eleusine indica; biotype W2027C, 240 g/ha",33%
same,visual damage,"Sorghum halepense; biotype Sensitive, 15 g/ha",93%
same,visual damage,"Sorghum halepense; biotype Sensitive, 30 g/ha",100%
same,visual damage,"Sorghum halepense; biotype Sensitive, 60 g/ha",100%
same,visual damage,"Sorghum halepense; biotype Sensitive, 120 g/ha",100%
same,visual damage,"Sorghum halepense; biotype Sensitive, 240 g/ha",100%
same,visual damage,"Sorghum halepense; biotype W2027C, 15 g/ha",38%
same,visual damage,"Sorghum halepense; biotype W2027C, 30 g/ha",50%
same,visual damage,"Sorghum halepense; biotype W2027C, 60 g/ha",68%
same,visual damage,"Sorghum halepense; biotype W2027C, 120 g/ha",68%
same,visual damage,"Sorghum halepense; biotype W2027C, 240 g/ha",78%
